Holding throughout (assay type): functional
Assay [1] deals with Escherichia coli. Kind of assay: Antibacterial activity against 16S rRNA methylase RmtB and CTX-M-65 ESBL producing Escherichia coli isolate ECRB1 by Etest.
The subject of assay [2] is Escherichia coli. Kind of assay: Antibacterial activity against 16S rRNA methylase rmtB and CTX-M-65 ESBL producing rifampin resistant Escherichia coli isolate ECRB1 by Etest.
Assay [3] concerns Escherichia coli. Kind of assay: Antibacterial activity against Escherichia coli DH10B harboring pBCSK expressing rmtB gene by Etest.
In assay [4] the test system is Escherichia coli. Kind of assay: Antibacterial activity against 16S rRNA methylase RmtB and CTX-M-65 ESBL producing Escherichia coli DH10B by Etest.

These results are taken from ChEMBL document CHEMBL1255282, “Escherichia coli isolate coproducing 16S rRNA Methylase and CTX-M-type extended-spectrum beta-lactamase isolated from an outpatient in the United States” (2008).

As a reminder, the MIC is the lowest concentration found to suppress growth. A higher MIC goes with weaker potency.

≈ marks a conversion by molar mass, not a printed value. Calls of active or inactive are those of the source. The rule behind the calls is not given here.

Consider `O=C(O)c1cn(C2CC2)c2cc(N3CCNCC3)c(F)cc2c1=O`, for which the result in the assay on Escherichia coli [1] was Active.
For `NCC[C@H](O)C(=O)N[C@@H]1C[C@H](N)[C@@H](O[C@H]2O[C@H](CN)[C@@H](O)[C@H](O)[C@H]2O)[C@H](O)[C@H]1O[C@H]1O[C@H](CO)[C@@H](O)[C@H](N)[C@H]1O` [AMIKACIN], the MIC was at least 128 mg/L against Escherichia coli [2], above 256 mg/L against Escherichia coli [1], above 256 mg/L against Escherichia coli [3] and at least 128 mg/L in the assay with Escherichia coli [4].
As to `CO/N=C(\C(=O)N[C@@H]1C(=O)N2C(C(=O)O)=C(COC(C)=O)CS[C@H]12)c1csc(N)n1` [CEFOTAXIME], the MIC against Escherichia coli [2] came out at 96 mg/L (≈ 211 µM); in the assay with Escherichia coli [1], 64 mg/L (≈ 141 µM); against Escherichia coli [4] it was 96 mg/L (≈ 211 µM).
As for `NC[C@H]1O[C@H](O[C@H]2[C@H](O)[C@@H](O[C@H]3O[C@H](CO)[C@@H](O)[C@H](N)[C@H]3O)[C@H](N)C[C@@H]2N)[C@H](N)C[C@@H]1O` [TOBRAMYCIN], the MIC in the assay on Escherichia coli [2] is at least 128 mg/L; against Escherichia coli [1] it was above 256 mg/L; against Escherichia coli [3], above 256 mg/L; against Escherichia coli [4], at least 128 mg/L.
For GENTAMICIN, the MIC in the assay on Escherichia coli [2] is above 128 mg/L; against Escherichia coli [1], above 256 mg/L; against Escherichia coli [3] it was above 256 mg/L; with Escherichia coli [4], above 128 mg/L.
